The record followed here is US6566355B1 (Hoffmann-La Roche Inc., priority 1991, dated 2003).

In one test the target is T1, β-lactamase (Citrobacter freundii, UniProt P05193).
T1 construct: Various β-lactamases can be isolated from penicillin- or cephalosporin-resistant bacterial strains such as; endogenous in cells; host or cells: Citrobacter freundii 1203 (enzyme purified from the crude cell extract, after ampicillin induction when necessary)
The experiment in a line: biochemical. As to the method:
A. Isolation of the β-lactamases
Various β-lactamases can be isolated from penicillin- or cephalosporin-resistant bacterial strains such as Klebsiella pneumoniae NCTC 418, Proteus vulgaris 1028, Bacillus licheniformis 749/C, Escherichia coli SN01 and Citrobacter freundii 1203. For this purpose, the corresponding strains are cultivated in Tryptic Soy Broth (Difco) and harvested by centrifugation in the last logarithmic growth phase (when necessary 50-100 mg/l of ampicillin are added to the medium towards the end of the log-phase in order to induce the β-lactamase). The thus-obtained bacterial mass is treated with 20 mM Tris-HCl buffer (pH 7.0); the cells are broken open with a French press while cooling. The mixture is centrifuged (20,000 r/min.) for 20-30 minutes and a clear crude extract is obtained.
B. Determination of the β-lactamase activity
The determination of the activity of the isolated β-lactamases can be carried out according to the method of O'Callaghan, C. H. et al. [Antimicr. Ag. Chemother., 1, 283-288 (1972)] using the chromogenic cephalosporin nitrocefin (87/312 from Glaxo). The requisite test batch contains per ml of water: 50 mM phosphate buffer (pH 7.0), 0.1 mM nitrocefin and sufficient enzyme (β-lactamase) to achieve a ΔA/min. of about 0.1. The cleavage of the substrate, which is accompanied by a change in colour, is effected at 37° C. and is followed quantitatively at 482 nm using a spectral photometer.
C. Determination of the β-lactamase-inhibiting activity of the compounds of general formula I
The above-described cleavage of the chromogenic substrate by β-lactamases (test B.) can be inhibited by the addition of compounds of general formula I (inhibitors). […] As a measurement for the affinity of the particular tested inhibitor to the β-lactamase, which is a measurement of the strength of the inhibitor, there serves that concentration which inhibits by 50% (IC 50 in nM) the cleavage of the substrate (nitrocefin) effected under the above test conditions (test B) in the absence of an inhibitor. […] The determination of the IC50 was effected by means of a graph.
(Test organism: Citrobacter freundii)

The subject of another test is Citrobacter freundii. The experiment in a line: MIC in vitro of a 1:4 combination of ceftriaxone with a compound of formula I (test D). It counts as cell-based. The conditions noted are these: 1:4 combination of ceftriaxone with the compound. The protocol:
D. Determination of the β-lactamase-inhibiting activity by combination of a compound of general formula I with ceftriaxone
The minimum inhibitory concentration in vitro (MIC in μg/ml) of a 1:4 combination of ceftriaxone with a compound of formula I against Citrobacter freundii is measured and compiled in Table 2 hereinafter.

[1] abbreviates: IC 50 nM, isolated β-lactamase of Citrobacter freundii, substrate nitrocefin 0.1 mM, 15 minutes pre-incubation with inhibitor, 37° C., pH 7.0.
The mark [2] stands for this setting: isolated β-lactamase of Citrobacter freundii, substrate nitrocefin 0.1 mM, 15 minutes pre-incubation with inhibitor, 37° C., pH 7.0, read-out: IC 50 nM.

Where a name gives a salt, the structure may show the parent alone. Read-outs that look alike come from different tables or passages of the source.

T1 sequence (P05193 21-381): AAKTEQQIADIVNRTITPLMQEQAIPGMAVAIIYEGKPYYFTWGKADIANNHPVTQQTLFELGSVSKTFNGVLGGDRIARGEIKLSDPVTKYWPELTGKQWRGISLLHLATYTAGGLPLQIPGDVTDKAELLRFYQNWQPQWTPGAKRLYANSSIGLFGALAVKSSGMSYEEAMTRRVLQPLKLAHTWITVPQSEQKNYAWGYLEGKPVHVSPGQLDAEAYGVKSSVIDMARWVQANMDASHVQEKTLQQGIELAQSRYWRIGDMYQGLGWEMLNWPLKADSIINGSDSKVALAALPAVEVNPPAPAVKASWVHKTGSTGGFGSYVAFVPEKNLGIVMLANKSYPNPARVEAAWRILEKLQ

For the molecule `O=C(OCc1ccccc1)N1CC[C@@H]2[C@H]1C(=O)N2S(=O)(=O)O` [Example 1(a), Benzyl (1S,5)-7-oxo-6-sulpho-2,6-diazabicyclo[3.2.0]heptane 2-carboxylate sodium salt], on β-lactamase, the IC50 amounted to 100 nM. Also, the MIC (commonly the least concentration at which growth counts as inhibited) in the test on Citrobacter freundii worked out at 8 µg/mL.

At β-lactamase (setting [1]), `O=C(NCc1ccccc1)N1CC[C@@H]2[C@H]1C(=O)N2S(=O)(=O)O` [Example 3, (1S,5R)-2-(Benzylcarbamoyl)-7-oxo-2,6-diazabicyclo[3.2.0]heptane-6-sulphonic acid sodium salt] had an IC50 of 330 nM. Moreover, the “MIC” value in the test with Citrobacter freundii stood at 2 µg/mL.

The molecule `Nc1cccc(NCC(=O)N2CC[C@@H]3[C@H]2C(=O)N3S(=O)(=O)O)c1` [5(i), (1S,5R)-2-[N-(m-Aminophenyl)glycyl] -7-oxo-2,6-diazabicyclo[3.2.0]heptane-6-sulphonic acid] yielded an IC50 against β-lactamase of 115 nM. Further, the “MIC” value in the test on Citrobacter freundii was determined as 2 µg/mL.

On β-lactamase, `Nc1ccc(/C=C/C(=O)N2CC[C@@H]3[C@H]2C(=O)N3S(=O)(=O)O)cc1` [12(a), (1S,5R)-2-[(E)-p-Aminocinnamoyl]-7-oxo-2,6-diazabicyclo[3.2.0]heptane-6-sulphonic acid] came in with an IC50 of 105 nM. Also, in the test on Citrobacter freundii, the “MIC” value was found to be 4 µg/mL.

`N[C@@H](C(=O)N1CC[C@@H]2[C@H]1C(=O)N2S(=O)(=O)O)c1ccccc1` [4(b), (1S,5R)-7-Oxo-2-(D-2-phenylglycyl)-6-2,6-diazabicyclo[3.2.0]heptane-6-sulphonic acid] yielded an IC50 against β-lactamase of 250 nM. Moreover, in the test with Citrobacter freundii, the minimal inhibitory concentration (MIC) was 2 µg/mL.

On β-lactamase (setting [1]), `O=C(NCc1ccc(O)c(O)c1)N1CC[C@@H]2[C@H]1C(=O)N2S(=O)(=O)[O-].[Na+]` [17(e), (1S,5R)-2-(3,4-Dihydroxybenzylcarbamoyl)-7-oxo-2,6-diazabicyclo[3.2.0]heptane-6-sulphonic acid sodium salt] yielded an IC50 of 250 nM. Also, the “MIC” value in the test on Citrobacter freundii is 2 µg/mL.

At β-lactamase (setting [1]), `O=C(NCC1CCCCC1)N1CC[C@@H]2[C@H]1C(=O)N2S(=O)(=O)[O-].[Na+]` [17(m), (1S,5R)-2-Cyclohexylmethylcarbamoyl-7-oxo-2,6-diazabicyclo[3.2.0]heptane-6-sulphonic acid sodium salt] gave an IC50 of 359 nM. The “MIC” value in the test on Citrobacter freundii stood at 16 µg/mL.

Molecule `N[C@H](Cc1ccccc1)C(=O)N1CC[C@@H]2[C@H]1C(=O)N2S(=O)(=O)O` [4(f), (1S,5R)-7-Oxo-2-(3-phenyl-D-alanyl)-2,6-diazabicyclo[3.2.0]heptane-6-sulphonic acid] displayed an IC50 against β-lactamase of 280 nM. Besides, the “MIC” value with Citrobacter freundii was found to be 4 µg/mL.

As for `Cn1ccnc1SCC(=O)N1CC[C@@H]2[C@H]1C(=O)N2S(=O)(=O)[O-].[Na+]` [23(d), (1S,5R)-2-(1-Methyl-imidazol-2-ylsulfanylacetyl)-7-oxo-2,6-diazabicyclo[3.2.0]heptane-6-sulfonic acid sodium salt], the IC50 against β-lactamase (setting [1]) was found to be 283 nM. In addition, the “MIC” value in the test with Citrobacter freundii was determined as 1 µg/mL.

Regarding `CCN(CC)CC.O=C(/C=C/c1c[nH]c2ccccc12)N1CC[C@@H]2[C@H]1C(=O)N2S(=O)(=O)O` [6(f), (1S,5R)-2-[(E)-3-(3-Indolyl)acryloyl]-7-oxo-2,6-diazabicyclo[3.2.0]heptane-6-sulphonic acid triethylamine salt (1:1)], the IC50 on β-lactamase (setting [2]) worked out at 11 nM. The minimal inhibitory concentration (MIC) in the test on Citrobacter freundii was 4 µg/mL.

For the molecule `CC(C)n1nnc(CC(=O)N2CC[C@@H]3[C@H]2C(=O)N3S(=O)(=O)[O-])n1.[Na+]` [5(l), (1S,5R)-2-[(2-Isopropyl-2H-tetrazol-5-yl)-acetyl]-7-oxo-2,6-diazabicyclo[3.2.0]heptane-6-sulphonic acid sodium salt], the IC50 at β-lactamase (setting [1]) came to 860 nM. The “MIC” value in the test with Citrobacter freundii is 4 µg/mL.

For the molecule `NS(=O)(=O)c1ccc(CNC(=O)N2CC[C@@H]3[C@H]2C(=O)N3S(=O)(=O)[O-])cc1.[Na+]` [17(g), (1S,5R)-7-Oxo-2-(4-sulphamoyl-benzylcarbamoyl)-2,6-diazabicyclo[3.2.0]heptane-6-sulphonic acid sodium salt], the IC50 against β-lactamase (setting [1]) amounted to 427 nM. Also, the “MIC” value in the test on Citrobacter freundii turned out to be 2 µg/mL.

On to `O=C(CNc1ccccc1)N1CC[C@@H]2[C@H]1C(=O)N2S(=O)(=O)[O-].[Na+]` [5(b), (1S,5R)-7-Oxo-2-(N-phenylglycyl)-2,6-diazabicyclo[3.2.0]heptane-6-sulphonic acid sodium salt], for which, on β-lactamase (setting [1]), the IC50 was 110 nM. For the same molecule, the “MIC” value with Citrobacter freundii is 2 µg/mL.

Regarding `O=C(/C=C/c1ccc(OS(=O)(=O)[O-])c(OS(=O)(=O)[O-])c1)N1CC[C@@H]2[C@H]1C(=O)N2S(=O)(=O)[O-].[Na+].[Na+].[Na+]` [11(c), (1S,5R)-2-[(E)-3,4-Bis(sulphoxy)cinnamoyl]-7-oxo-2,6-diazabicyclo[3.2.0]heptane-6-sulphonic acid sodium salt], on β-lactamase (setting [1]), the IC50 was 1 nM. In addition, the “MIC” value with Citrobacter freundii was 16 µg/mL.

On β-lactamase (setting [1]), `O=C(NCc1nc(C2CC2)no1)N1CC[C@@H]2[C@H]1C(=O)N2S(=O)(=O)[O-].[Na+]` [17(af), (1S,5R)-2-(3-Cyclopropyl-1,2,4-oxadiazol-5-ylmethylcarbamoyl)-7-oxo-2,6-diazabicyclo[3.2.0]heptane-6-sulfonic acid sodium salt] yielded an IC50 of 107 nM. Also, in the test on Citrobacter freundii, the “MIC” value amounted to 1 µg/mL.

As for `O=C(C=Cc1cncn1S(=O)(=O)[O-])N1CC[C@@H]2[C@H]1C(=O)N2S(=O)(=O)[O-].[Na+].[Na+]` [23(l), (1S,5R)-7-Oxo-2-[3-(1-sulfo-imidazol-5-yl)acryloyl]-2,6-diazabicyclo[3.2.0]heptane-6-sulfonic acid sodium salt], the IC50 against β-lactamase (setting [1]) was found to be 5 nM. In the test on Citrobacter freundii, the “MIC” value came to 2 µg/mL.

On β-lactamase (setting [1]), `O=C(CCc1ccccc1)N1CC[C@@H]2[C@H]1C(=O)N2S(=O)(=O)[O-].[Na+]` [11(b), (1S,5R)-7-Oxo-2-(3-phenyl-propionyl)-2,6-diazabicyclo[3.2.0]heptane-6-sulphonic acid sodium salt] displayed an IC50 of 573 nM. Besides, the “MIC” value in the test with Citrobacter freundii amounted to 16 µg/mL.

“Mixture of (1S,5R)-2-[(E)-3-(1-Methyl-3- and -4- or -3- and -5- or -4- and -5-sulfo-pyrrol-2-yl)acryloyl]-7-oxo-2,6-diazabicyclo[3.2.0]heptane-6-sulfonic acid sodium salt (1:2) [23(j)]”: the IC50 at β-lactamase (setting [2]) turned out to be 38 nM. Further, the “MIC” value in the test with Citrobacter freundii worked out at 1 µg/mL.

Consider `N[C@@H](C(=O)N1CC[C@@H]2[C@H]1C(=O)N2S(=O)(=O)O)c1ccc(O)c(O)c1.[Na]` [Example 21, (1S,5R)-2-[(R,S)-Amino-(3,4-dihydroxyphenyl)acetyl]-7-oxo-2,6-diazabicyclo[3.2.0]heptane-6-sulphonic acid sodium salt], for which the IC50 on β-lactamase (setting [2]) amounted to 695 nM. Further, the “MIC” value with Citrobacter freundii came to 4 µg/mL.

The molecule `O=C(/C=C/c1cccs1)N1CC[C@@H]2[C@H]1C(=O)N2S(=O)(=O)O` [8(a), (1S,5R)-2-[(E)-3-(2-Thienyl)acryloyl]-7-oxo-2,6-diaza-bicyclo[3.2.0]heptane-6-sulphonic acid] showed an IC50 against β-lactamase of 75 nM. The minimal inhibitory concentration (MIC) with Citrobacter freundii turned out to be 4 µg/mL.

Molecule `Cc1nnc(O)c(CNC(=O)N2CC[C@@H]3[C@H]2C(=O)N3S(=O)(=O)O)c1C` [17(f), (1S,5R)-2-(3-Hydroxy-5,6-dimethyl-pyridazin-4-yl-methylcarbamoyl)-7-oxo-2,6-diazabicyclo[3.2.0]heptane-6-sulphonic acid sodium salt] returned an IC50 against β-lactamase (setting [1]) of 193 nM. For the same molecule, the “MIC” value in the test on Citrobacter freundii was determined as 2 µg/mL.

`Cn1cccc1/C=C/C(=O)N1CC[C@@H]2[C@H]1C(=O)N2S(=O)(=O)[O-].[Na+]` [23(c), (1S,5R)-2-[(E)-3-(1-Methyl-pyrrol-2-yl)acryloyl]-7-oxo-2,6-diazabicyclo[3.2.0]heptane-6-sulfonic acid sodium salt] had an IC50 at β-lactamase (setting [1]) of 420 nM. The “MIC” value with Citrobacter freundii is 8 µg/mL.

At β-lactamase (setting [1]), `Cn1nnnc1SCC(=O)N1CC[C@@H]2[C@H]1C(=O)N2S(=O)(=O)[O-].[Na+]` [5(j), (1S,5R)-2-[[(1-Methyl-1H-tetrazol-5-yl)-thio]acetyl]-7-oxo-2,6-diazabicyclo[3.2.0]heptane-6-sulphonic acid sodium salt] gave an IC50 of 23 nM. The “MIC” value in the test with Citrobacter freundii turned out to be 0.5 µg/mL.
